Data reported in patent publication US8513272B2, “Forms of a fused pyrrolocarbazole compound” (Cephalon, Inc., priority 2008, dated 2013).
≈ marks a conversion by molar mass, not a printed value.

Test: Solubility of various forms of Compound I in water and pH 1, pH 2 (HCl/KCl) buffers at 25° C., HPLC analysis
Assay type: physicochemical
Conditions: stirring 300 rpm, saturated solution; for Solubility, pH 1 Buffer: pH 1 HCl/KCl buffer; for Solubility, pH 2 Buffer: pH 2 HCl/KCl buffer
Method: Solubility of Various Forms of Compound I in Water and pH1, pH2 Buffers
Solubility was measured by adding 25 mg of the various forms of Compound I or an amount adequate to maintain a saturated solution in water and pH 1, pH 2 (HCl/KCl buffers). Temperature of 25° C. and a stirring rate of 300 rpm were maintained by using a HEL Crystal Scan unit (HEL, UK). Samples were withdrawn at the times indicated, filtered and analyzed by HPLC for Compound I using the method described below.
HPLC Method for Measurement of CEP11981 Content of Solubility Samples
Testing was performed on a calibrated ThermoFinnigan High Performance Liquid Chromatography (HPLC) system designated LC-0410-AD. The system comprises a P4000 pump, AS3000 autosampler, and UV2000 detector. A TCM 2000 temperature control module was used to heat the column. All standard solutions and samples were prepared in Class A glass volumetric flasks and were placed in autosampler vials. Standard weightings were done using a calibrated Mettler analytical balance. The sample preparations were centrifuged using an Eppendorf microcentrifuge. The primary chromatography data was acquired and integrated using ChromQuest software. Microsoft Office Excel 2003 was used for the calculation of results.
Column: MS C18, 150×4.6 mm ID, 3.5μ Waters, m Xterra packing
Column Temperature: 30° C.
Detector: UV/VIS @ 270 nm
Mobile Phase A: 10 mM Ammonium Acetate (aqueous)
Mobile Phase B: 10 mM Ammonium Acetate in sample solvent

| Structure (SMILES) | Solubility, pH 1 Buffer | Solubility, pH 2 Buffer | Solubility, Water |
| --- | --- | --- | --- |
| CC(C)Cn1c2ccc(Nc3ncccn3)cc2c2c3c(c4c(c21)CCc1nn(C)cc1-4)C(=O)NC3 [AS, 11-isobutyl-2-methyl-8-(2-pyrimidinylamino)-2,5,6,11,12,13-hexahydro-4H-indazolo[5,4-a]pyrrolo[3,4-c]carbazol-4-one] | 20000 mcg/mL | 0.04 mcg/mL | <1 µg/mL |
| CC(C)Cn1c2ccc(Nc3ncccn3)cc2c2c3c(c4c(c21)CCc1nn(C)cc1-4)C(=O)NC3 [pTSA-A1, 11-isobutyl-2-methyl-8-(2-pyrimidinylamino)-2,5,6,11,12,13-hexahydro-4H-indazolo[5,4-a]pyrrolo[3,4-c]carbazol-4-one] | 23 mcg/mL | 0.3 mcg/mL | <1 µg/mL |
| CC(C)Cn1c2ccc(Nc3ncccn3)cc2c2c3c(c4c(c21)CCc1nn(C)cc1-4)C(=O)NC3 [pTSA-A2, 11-isobutyl-2-methyl-8-(2-pyrimidinylamino)-2,5,6,11,12,13-hexahydro-4H-indazolo[5,4-a]pyrrolo[3,4-c]carbazol-4-one] | 11 mcg/mL | 5 mcg/mL | 20 µg/mL (≈ 41.9 µM) |
